This is an account of results in a melting point compilation (Tetko et al.; mined from patent text by program, amines drawn as free bases though some values may be those of a salt).

On to `O=C(CC12CC3CC(CC(C3)C1)C2)Nc1c(Cl)ccc2nc(N3CCNCC3)ccc12`, for which the melting point lay in the range of 280 to 283 °C. Turning to `CCn1c(=O)sc2cc(C(O)c3ccc([N+](=O)[O-])cc3)ccc21` (centres undefined), the melting point was in the range of 160 to 162 °C.

`Nc1ccc(Sc2ccc3c(c2)OCC(=O)N3)cc1` showed a melting point of 232 to 234 °C. For `COC(=O)Nc1cc(OS(=O)(=O)c2ccc(C)cc2)nc(N)n1` the value was 188 to 190 °C; for `COc1cccc(CCCC(=O)O)c1C`, 105 to 107 °C. Next, `CN(C)c1ccc(C2(c3ccc(N(C)C)cc3N(C)C)OC(=O)c3ccccc32)cc1` (centres undefined): 190 to 194 °C; `O=S1(=O)N=C2CCCN2c2ccc(O)cc21`: above 300 °C.

`COc1cc(C)cc(OC)c1NC1C2CC3CC(C2)CC1C3` (centres undefined) displayed a melting point of 100 °C. For `O=C(C=Cc1ccncc1)c1ccc(F)cc1` the value was 157 °C; for `CCC(c1cccc(Br)c1)c1c(O)c2ccccc2oc1=O` (centres undefined), 168 to 172 °C.

For `CN(C)C1(c2ccccc2)CCC(NC2c3ccccc3-c3ccccc32)CC1` (centres undefined), the melting point lay within 202 to 205 °C.

`COCc1ccc2cccnc2c1Cl` returned a melting point of 78 to 79 °C. Next, `CC(C)NCCC(CCN1CCCCC1)(C(N)=O)c1ccccc1Cl` (centres undefined): 134 to 137 °C. Next, `NC(=O)N1C(=O)C(C(=O)c2ccco2)c2ncc(Cl)cc21` (centres undefined): above 250 °C. Next, `COc1ccc(C(=O)c2ccc(OCCBr)cc2)cc1`: 112 to 113 °C.

In turn, `Nc1nc(COc2ccccc2)nc2nccnc12` came in with a melting point of 202 to 204 °C. For `COc1cccc(CCN2C(=O)c3c(F)c(F)c(F)c(F)c3C2(O)c2ccc(F)cc2)c1` (centres undefined) the value was 161 °C. Next, `COCCn1nc(-c2ccc(Cl)cc2)c2ccccc2c1=O`: 116 to 118 °C; `CCCCC1(CCCC)Cc2c(O)cccc2C1=O`: 114 to 115 °C. Next, `Cc1ccccc1Cc1c(C)c(NC(=O)CC(C)(C)C)c(C)c2c1OC(C)(C)C2`: 175 to 176 °C; `c1c(NC23CC4CC(CC(C4)C2)C3)nc(NC23CC4CC(CC(C4)C2)C3)nc1N1CCNCC1`: 168 to 175 °C. On to `CC(C)(C)c1cc(CCc2ccccc2NC(=O)NC(c2ccccc2)c2ccccc2)cc(C(C)(C)C)c1O`, for which the melting point was 187 °C.

`C[C@H](NC(=O)c1c[nH]c2ncc(-c3cn(-c4cc(Cl)ccc4F)cn3)nc12)C(C)(C)C` registered a melting point of 337 to 339 °C. In turn, `CCc1cc(=O)c2cc(C(C)C(=O)O)ccc2o1` (centres undefined) yielded a melting point of 128 °C. For `CN(C)S(=O)(=O)c1cc(C(=O)CBr)ccc1Cl` the value was 98 °C; for `CCOc1ccc(-c2nc(-c3cccc(C(=O)O)c3)cs2)cc1OCC`, 192 to 193 °C.

`CC=Cc1cc(C(=O)c2ccccc2F)c(Cl)c(Cl)c1O` registered a melting point of 83 to 84 °C. For `CCCCN(Cc1c(O)ccc2ccccc12)Cc1c(O)ccc2ccccc12` the value was 130 to 131 °C. Next, `Cc1cc(-c2nncc3c(Br)c(OCc4ncnn4C)nn23)no1`: 239 to 241 °C; `CCOc1cc2c(cc1OC(C)=O)CCC1C2CCC2(C)C(OC(C)=O)CCC12` (centres undefined): 132 to 133 °C; `O=C1NC(Cc2cccs2)C(=O)NC1Cc1ccc(OCc2ccccc2)cn1` (centres undefined): 201 to 203 °C. For `CC(C)(C)[N+]([O-])=Cc1c[nH]c(-c2ccccc2)n1` the value was 209 to 210 °C. Take `COc1cc(NC(=O)c2ccccc2Cl)ccc1C(=O)N1CCCC(OCCS(=O)(=O)c2ncc[nH]2)c2cc(Cl)ccc21` (centres undefined): the melting point was in the range of 247 to 248 °C. Next, `CNc1cnc(N2CCOCC2)cc1-c1ccccc1C`: 73.5 to 76 °C; `CCCCCCCCOC1CCC(=O)N1` (centres undefined): 36 to 38 °C; `Fc1ccccc1/C=C/c1ccc(N(c2ccccc2)c2ccccc2)cc1`: 114 to 115 °C. For `Cn1c2ccccc2c(=O)n2nc(C#N)cc12` the value was 307 to 310 °C. Next, `CC(C)NC(=O)Nc1nc(Cc2c(Cl)cccc2Cl)nc(Nc2ccc(C#N)cc2)n1`: 267 to 268 °C; `COc1cc(N)cc(N)c1`: 79 to 80 °C.

Consider `O=C1CCC(N2Cc3c(OCc4ccc5occc5c4)cccc3C2=O)C(=O)N1` (centres undefined), for which the melting point fell in the range of 168 to 170 °C.

As for `CC(C)(C)OC(=O)Nc1ccc2ccc(S(=O)(=O)N(Cc3ccccc3)Cc3ccccc3)cc2c1`, the melting point is 139 to 140 °C. For `O=C(O)CCc1ccc(OCc2sc3ccccc3c2Cl)cc1` the value was 136 to 137 °C; for `Cn1nc2c(N)nc3c(c2c1CCC1CCCCC1)CCCC3`, 230 to 231 °C. For `OC1CC2(CCN(C3CCC3)CC2)Oc2ccccc21` (centres undefined) the value was 211 to 213 °C. Next, `CCN(CC)c1ccc(-c2cnc3[nH]cc(C(=O)C4(C)CCCCC4)c3n2)cc1`: 211 to 213 °C; `Cn1cc2c(n1)CCCc1c-2cnn1C`: 176 to 178 °C; `CCCCc1nc2cccc(C(=O)OC)c2n1Cc1ccc(-c2ncncc2C#N)cc1`: 131 to 133 °C. Turning to `CC/C=C\C#CCCCCCCCCCCO`, the melting point fell in the range of 6 to 7 °C.

In turn, `O=C1c2cccc([N+](=O)[O-])c2C(=O)N1CC(=O)N1c2ccccc2N(Cc2ccccc2)C(=O)[C@H]2CCC[C@H]21` (relative stereo) showed a melting point of 238 to 240 °C. In the case of `COC(=O)c1cccc2nc(OC)n(Cc3ccc(-c4ccccc4C#N)cc3)c12`, the melting point lay within 149 to 150 °C. `Cc1c[nH]c(C)c1C(C)(C)C`: the melting point was 70 to 71 °C.

Regarding `O=C(CC(CC(=O)c1ccc(F)cc1)c1cccc(-c2nnn[nH]2)c1)c1ccc(F)cc1`, the melting point was determined as 162 °C. `C=C[C@H](O)[C@H](Cc1ccccc1)NC(=O)OC(C)(C)C` displayed a melting point of 98 to 100 °C. Take `C#CCN1C(=O)COc2cc(-c3nn(C)c(C(F)(F)F)c3Cl)c(F)cc21`: the melting point is 184 °C.

The compound `Cc1cccc(C)c1N(CCC(C)N1C(=O)c2ccccc2C1=O)S(C)(=O)=O` (centres undefined) displayed a melting point of 148 to 152 °C. For `CCCCCCOc1ccc(Nc2cc(Nc3ccc4c(c3)OCCO4)ncc2F)cc1` the value was 124 to 125 °C; for `FC(F)(F)c1cccc(N2CCN(CC[C@H]3CC[C@H](Nc4ncccn4)CC3)CC2)c1`, 167 °C; for `CCOC(=O)c1cc2cccc(N(C)S(=O)(=O)c3cccs3)c2n1COC`, 143 to 145 °C. Take `O=C1c2ccccc2C2(O)Oc3c(ccc4ccccc34)C12O` (centres undefined): the melting point is 216 to 218 °C. For `CCCCCCCCOc1ccc2c(c1OCCCCCCCC)C(=O)c1ccccc1C2=O` the value was 91 to 94 °C. Next, `C=Cc1cc(Br)c(O)c(Br)c1`: 75 °C. For `CC(=O)N=c1[nH]c2ccccc2n1CCCN1CCN(C(c2ccccc2)c2ccccc2)CC1` the value was 143 °C.

`N#Cc1ccc(N2CC(C(=O)N3CCN(CC(=O)OCc4ccccc4)CC3)OC2=O)cc1` (centres undefined): the melting point fell in the range of 131 to 132 °C. Turning to `[N-]=[N+]=NCc1ccc(Sc2ccc(Cl)cc2)c(Cl)c1`, the melting point lay within 39 to 41 °C.

The melting point is the temperature, or range, at which the solid turns liquid.
